Laboratory results from ChEMBL document CHEMBL1201862, “PubChem BioAssay data set” (2004).
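Cultured in 96-well plates, cells were exposed to test compound for 48 hours across five concentrations. GI50 is the concentration that inhibits growth by half.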 Calls of active or inactive are those of the source. Rule as the data show it: active = GI50 up to about 1.1 µM and inactive = higher.

What was measured:
Assay in all cases: NCI-60 cell line screen, 48 h
NCI-H460 = system: NCI-H460
MDA-MB-231 = system: MDA-MB-231
SF-539 = system: SF-539
EKVX = system: EKVX
U-251 = system: U-251
786-0 = system: 786-0
NCI-H522 = system: NCI-H522
HOP-62 = system: HOP-62
MDA-MB-435 = system: MDA-MB-435
UACC-62 = system: UACC-62
K562 = system: K562
HT-29 = system: HT-29
SNB-78 = system: SNB-78
TK-10 = system: TK-10
CCRF-CEM = system: CCRF-CEM
COLO 205 = system: COLO 205
BT-549 = system: BT-549
SF-295 = system: SF-295
HCT-15 = system: HCT-15
HL-60 = system: HL-60

Compound	GI50 (NCI-H460)	GI50 (MDA-MB-231)	GI50 (SF-539)	GI50 (EKVX)	GI50 (U-251)	GI50 (786-0)	GI50 (NCI-H522)	GI50 (HOP-62)	GI50 (MDA-MB-435)	GI50 (UACC-62)	GI50 (K562)	GI50 (HT-29)	GI50 (SNB-78)	GI50 (TK-10)	GI50 (CCRF-CEM)	GI50 (COLO 205)	GI50 (BT-549)	GI50 (SF-295)	GI50 (HCT-15)	GI50 (HL-60)
COc1cc(-c2ccc(Nc3ccccc3C(=O)O)c(OC)c2)ccc1Nc1ccccc1C(=O)O	1.94 µM (inactive)	13.7 µM (inactive)	5.45 µM (inactive)	58.7 µM (inactive)	3.3 µM (inactive)	4.52 µM (inactive)	8.87 µM (inactive)	8.57 µM (inactive)	8.59 µM (inactive)	1.46 µM (inactive)	1.35 µM (inactive)	31 µM (inactive)	32 µM (inactive)	36.6 µM (inactive)	2.38 µM (inactive)	48.3 µM (inactive)	15.8 µM (inactive)	11.9 µM (inactive)	0.619 µM	1.91 µM (inactive)
CN(C(=O)C12C3C4C5C3C1(C(=O)O)C5C42)C(C)(C)C (centres undefined)	> 100 µM (inactive)		> 100 µM (inactive)	> 100 µM (inactive)	> 100 µM (inactive)	> 100 µM (inactive)	> 100 µM (inactive)	> 100 µM (inactive)		> 100 µM (inactive)	44.6 µM (inactive)	78.5 µM (inactive)	> 100 µM (inactive)	> 100 µM (inactive)	76.6 µM (inactive)	28 µM (inactive)		> 100 µM (inactive)	33.2 µM	17.1 µM (inactive)
O=c1c(-c2ccccc2)c2oc(c1-c1ccccc1)CSCc1cccc(c1)CSC2	38.7 µM (inactive)		22.7 µM (inactive)	42.1 µM (inactive)	31 µM (inactive)	27.5 µM (inactive)	39.6 µM (inactive)	21.9 µM (inactive)		44.1 µM (inactive)	62.5 µM (inactive)	51.9 µM (inactive)	82.8 µM (inactive)	87.1 µM (inactive)	80 µM (inactive)	49.1 µM (inactive)		51.2 µM (inactive)	> 100 µM	67.9 µM (inactive)
COc1cccc(C2C(C(=O)Nc3cc(=O)n(C)c(=O)n3C)=C(C)NC(C)=C2C(=O)Nc2cc(=O)n(C)c(=O)n2C)c1O	> 100 µM (inactive)		> 100 µM (inactive)	> 100 µM (inactive)	> 100 µM (inactive)	> 100 µM (inactive)	> 100 µM (inactive)	> 100 µM (inactive)			> 100 µM (inactive)	> 100 µM (inactive)	> 100 µM (inactive)	> 100 µM (inactive)	86.7 µM (inactive)	> 100 µM (inactive)		> 100 µM (inactive)		> 100 µM (inactive)
CCOc1ccc(NC(=O)CC2C(=O)Nc3ccccc3[S+]2[O-])cc1 (centres undefined)	> 80.4 µM (inactive)		> 67.8 µM (inactive)	> 46.5 µM (inactive)	52.4 µM (inactive)	49.1 µM (inactive)	> 100 µM (inactive)	> 100 µM (inactive)		> 46.5 µM (inactive)	> 100 µM (inactive)	> 100 µM (inactive)	> 100 µM (inactive)	> 71.4 µM (inactive)	> 100 µM (inactive)	> 100 µM (inactive)		> 100 µM (inactive)	> 100 µM	> 100 µM (inactive)
C[Si](C)(c1ccccc1)C1CC(=O)CC(=O)C1	> 100 µM (inactive)		19.3 µM (inactive)	> 100 µM (inactive)	> 100 µM (inactive)	21.4 µM (inactive)	26.1 µM (inactive)	> 100 µM (inactive)		> 100 µM (inactive)	> 100 µM (inactive)	> 100 µM (inactive)	> 100 µM (inactive)	> 100 µM (inactive)	38.4 µM (inactive)	> 100 µM (inactive)		> 100 µM (inactive)	> 100 µM	21.3 µM (inactive)
C[C@]12CCNC(=O)C=C1CC[C@@H]1C2CC[C@@]2(C)C1CC[C@@H]2OC(=O)COc1ccc(N(CCCl)CCCl)cc1 (some centres undefined)	0.308 µM (active)	17.5 µM (inactive)	2.07 µM (inactive)	16.1 µM (inactive)	2.03 µM (inactive)	0.964 µM (active)	1.65 µM (inactive)	2.84 µM (inactive)	21.8 µM (inactive)	1.28 µM (inactive)	2.91 µM (inactive)	8.59 µM (inactive)	28.6 µM (inactive)	17.6 µM (inactive)	0.326 µM (active)	9.08 µM (inactive)	17.5 µM (inactive)	8.09 µM (inactive)	2.68 µM	1.32 µM (inactive)
C[N+](C)(C)CC(=O)N/N=C(/C=C/c1ccccc1)CC1OC(=O)c2ccccc21 (centres undefined)	> 100 µM (inactive)		> 100 µM (inactive)	> 100 µM (inactive)	> 100 µM (inactive)	> 100 µM (inactive)	> 100 µM (inactive)	> 100 µM (inactive)		> 100 µM (inactive)	> 100 µM (inactive)	> 10 µM (inactive)	> 100 µM (inactive)	> 100 µM (inactive)	> 100 µM (inactive)	> 100 µM (inactive)		> 10 µM (inactive)	> 100 µM	> 100 µM (inactive)
O=c1[nH]cc(F)c(=O)n1C1OC(CO)C(O)C1O (centres undefined)	> 100 µM (inactive)			> 100 µM (inactive)	> 100 µM (inactive)	> 100 µM (inactive)	> 100 µM (inactive)	> 100 µM (inactive)			> 100 µM (inactive)	> 100 µM (inactive)	> 100 µM (inactive)	> 100 µM (inactive)	> 100 µM (inactive)	> 100 µM (inactive)		> 100 µM (inactive)	> 100 µM	> 100 µM (inactive)
CCOc1ccc2c(c1)[n+]([O-])c(C(N)=O)c(N)[n+]2[O-]	> 100 µM (inactive)		> 100 µM (inactive)	> 100 µM (inactive)	> 100 µM (inactive)	> 100 µM (inactive)	> 100 µM (inactive)	> 100 µM (inactive)			> 100 µM (inactive)	> 100 µM (inactive)	> 100 µM (inactive)		94 µM (inactive)	> 100 µM (inactive)		> 100 µM (inactive)		> 100 µM (inactive)
Cc1cc2c(C(C)C)c(O)c(O)c(/C=N\CCO)c2c(O)c1-c1c(C)cc2c(C(C)C)c(O)c(O)c(/C=N/CCO)c2c1O	1.12 µM (active)		2.54 µM (inactive)	2.28 µM (inactive)	1.21 µM (inactive)	2.1 µM (inactive)	2.04 µM (inactive)	2.6 µM (inactive)		2.74 µM (inactive)	1.02 µM (active)	2.28 µM (inactive)	3.24 µM (inactive)	6.4 µM (inactive)	0.653 µM (active)	1.63 µM (inactive)		2.15 µM (inactive)	1.51 µM	2.43 µM (inactive)
O=[N+]([O-])c1ccc(C2CC(c3ccccc3Cl)=Nc3ccccc3[S+]2[O-])cc1 (centres undefined)	4.27 µM (inactive)	2.29 µM (inactive)	7.19 µM (inactive)	15 µM (inactive)	3.05 µM (inactive)	1.8 µM (inactive)	1.15 µM (inactive)	7.19 µM (inactive)		2.69 µM (inactive)	1.37 µM (inactive)	2.5 µM (inactive)	13.1 µM (inactive)	8.02 µM (inactive)	1.48 µM (inactive)	7.69 µM (inactive)	13.7 µM (inactive)	5.55 µM (inactive)	2.21 µM	1.19 µM (inactive)
COC(=O)CCC(=O)CC(=O)C(=O)Nc1c(Cl)cc([N+](=O)[O-])cc1Cl	> 100 µM (inactive)		> 100 µM (inactive)	51.8 µM (inactive)	> 100 µM (inactive)	> 100 µM (inactive)	45.3 µM (inactive)	> 100 µM (inactive)		> 100 µM (inactive)	> 100 µM (inactive)	> 100 µM (inactive)	> 100 µM (inactive)	> 100 µM (inactive)	57.3 µM (inactive)	> 100 µM (inactive)		> 100 µM (inactive)	55.6 µM	> 100 µM (inactive)
O=C1C(N2C(=O)c3ccccc3C2=O)CN1C(COCc1ccccc1)c1ccc(OCc2ccccc2)cc1 (centres undefined)	> 100 µM (inactive)		> 100 µM (inactive)	> 100 µM (inactive)	> 100 µM (inactive)	> 100 µM (inactive)	> 100 µM (inactive)	> 100 µM (inactive)		> 100 µM (inactive)	> 100 µM (inactive)	> 100 µM (inactive)	> 100 µM (inactive)	> 100 µM (inactive)	> 100 µM (inactive)	> 100 µM (inactive)		> 100 µM (inactive)	> 100 µM	> 100 µM (inactive)
